Values quoted from earlier work in patent US8686137B2, “Heterocyclic compounds and their uses” (Amgen Inc., priority 2010, dated 2014).

Legend:
[1] = test system: mouse model of rheumatoid arthritis; settings: in vivo
[2] = test system: model of systemic lupus erythematosis; settings: in vivo
[3] = target: T1, p110δ (Homo sapiens, UniProt O00329)
T1 sequence (O00329 1-1044): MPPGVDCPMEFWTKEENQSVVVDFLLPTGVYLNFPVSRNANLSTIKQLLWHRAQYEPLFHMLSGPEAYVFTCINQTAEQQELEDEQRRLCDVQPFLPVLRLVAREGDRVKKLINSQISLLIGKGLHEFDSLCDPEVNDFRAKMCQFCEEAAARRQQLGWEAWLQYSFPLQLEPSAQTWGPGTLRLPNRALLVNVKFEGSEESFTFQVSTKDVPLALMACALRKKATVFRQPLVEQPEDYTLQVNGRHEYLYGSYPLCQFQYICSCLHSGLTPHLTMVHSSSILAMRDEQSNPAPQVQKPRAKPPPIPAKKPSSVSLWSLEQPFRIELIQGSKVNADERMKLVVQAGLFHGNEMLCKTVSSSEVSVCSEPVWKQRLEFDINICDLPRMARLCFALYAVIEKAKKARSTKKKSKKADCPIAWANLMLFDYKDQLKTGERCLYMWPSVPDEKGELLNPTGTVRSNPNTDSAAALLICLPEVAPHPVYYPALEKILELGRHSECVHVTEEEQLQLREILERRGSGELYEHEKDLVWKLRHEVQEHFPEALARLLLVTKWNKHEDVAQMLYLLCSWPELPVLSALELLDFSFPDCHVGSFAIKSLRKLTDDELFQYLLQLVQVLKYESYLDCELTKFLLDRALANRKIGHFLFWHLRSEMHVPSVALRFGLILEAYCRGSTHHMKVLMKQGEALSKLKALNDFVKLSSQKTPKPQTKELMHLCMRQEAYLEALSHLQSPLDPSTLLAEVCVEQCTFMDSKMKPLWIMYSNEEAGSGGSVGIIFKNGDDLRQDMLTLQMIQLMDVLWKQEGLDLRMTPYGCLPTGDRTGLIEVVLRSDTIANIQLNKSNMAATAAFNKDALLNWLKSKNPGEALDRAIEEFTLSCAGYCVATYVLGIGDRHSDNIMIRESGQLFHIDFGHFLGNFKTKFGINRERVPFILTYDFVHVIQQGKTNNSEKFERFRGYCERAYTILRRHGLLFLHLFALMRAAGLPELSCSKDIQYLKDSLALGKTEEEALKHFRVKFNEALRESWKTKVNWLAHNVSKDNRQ

[4] = test system: protein kinases
[5] = test system: passive cutaneous anaphylaxis (PCA); settings: absence of functional delta (compound or p110δ D910A mice)
[6] = test system: ovalbumin-induced airway inflammation

O=C1NC(=O)/C(=C\c2ccc3nccnc3c2)S1 [AS 605240]
efficacy in a mouse model of rheumatoid arthritis [1]: efficacious | onset of disease in a model of systemic lupus erythematosis [2]: delay onset of disease

Cc1ccccc1-n1c(Cn2cnc3c(N)ncnc32)nc2cccc(C)c2c1=O [IC87114]
inhibits p110δ [3]: high nanomolar range (triple digit) | activity against any protein kinases tested [4]: no activity | passive cutaneous anaphylaxis (PCA) [5]: significantly reduced | inflammation and disease in a murine model of asthma [6]: significantly ameliorate
